From patent publication US10648014B2, “Degradation resistant peptide based biosensors” (Purdue Research Foundation, priority 2014, dated 2020)
Square brackets hold non-standard residues; d marks the D form. Ends that are not written are not given here. * marks the point of attachment. Biotin = O=C1N[C@H]2[C@H](CS[C@H]2CCCCC(=O)*)N1; photo‑cleavable linker = not defined here

How the values were obtained:
Abl kinase = test: In vitro Abl kinase assay, phosphorylation detected by mass spectrometry; assay type: biochemical; details: for phosphorylation by Abl kinase: in vitro kinase assay, mass spectrometry, FIG. 2; for selectivity toward the Abl family of kinases: in vitro kinase assays Abl vs Lyn and Fyn
Procedure: (§1) In Vitro Abl Kinase Assay: The in vitro kinase assays were performed in triplicate in Dulbecco's Phosphate Buffered Saline without Calcium, Magnesium, or Phenol red in water bath maintained at 37° C. The total volume of the assay was 200 uL, and contained 1 mM ATP, 10 mM MgCl2, 5-25 uM of the biosensor, and 6 nM of Arg or Lyn Kinase final concentrations. Initiation of the assay was the addition of 1 uL of Arg Kinase to the reaction mix and heated at 37° C. Aliquots of 20 uL were collected at intervals described over a total run time of up to 60 minutes.
Referring now to FIG. 2, to evaluate the importance of the SH3 targeting sequence, we performed in vitro kinase assays comparing the peptides using the Abl kinase. Phosphorylation was detected using mass spectrometry.

Lyn kinase = Lyn kinase (Homo sapiens, UniProt P07948); test: In vitro kinase assay against Lyn kinase; assay type: biochemical; details: FIG. 2
Lyn kinase, sequence (P07948 whole entry): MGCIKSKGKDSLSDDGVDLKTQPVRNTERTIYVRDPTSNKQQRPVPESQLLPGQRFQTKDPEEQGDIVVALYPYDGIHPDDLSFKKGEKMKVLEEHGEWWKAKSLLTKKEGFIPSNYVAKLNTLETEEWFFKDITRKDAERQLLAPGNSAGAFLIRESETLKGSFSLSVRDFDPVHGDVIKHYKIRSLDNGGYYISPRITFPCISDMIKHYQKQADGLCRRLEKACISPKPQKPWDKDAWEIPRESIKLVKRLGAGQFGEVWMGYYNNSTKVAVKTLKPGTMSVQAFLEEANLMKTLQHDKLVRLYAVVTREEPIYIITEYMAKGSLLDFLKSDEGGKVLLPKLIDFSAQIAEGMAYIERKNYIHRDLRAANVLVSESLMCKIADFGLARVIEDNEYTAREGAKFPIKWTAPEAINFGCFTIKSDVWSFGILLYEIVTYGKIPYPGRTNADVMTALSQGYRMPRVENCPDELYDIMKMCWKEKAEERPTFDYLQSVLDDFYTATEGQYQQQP
Procedure: as §1
(§2) In order to assess the selectivity of the biosensor SEQ ID NO: 47, we tested against Lyn and Fyn kinases using the in vitro kinase assay.

Fyn kinase = Fyn kinase (Homo sapiens, UniProt P06241); test: In vitro kinase assay against Fyn kinase; assay type: biochemical; details: FIG. 2
Fyn kinase, sequence (P06241 whole entry): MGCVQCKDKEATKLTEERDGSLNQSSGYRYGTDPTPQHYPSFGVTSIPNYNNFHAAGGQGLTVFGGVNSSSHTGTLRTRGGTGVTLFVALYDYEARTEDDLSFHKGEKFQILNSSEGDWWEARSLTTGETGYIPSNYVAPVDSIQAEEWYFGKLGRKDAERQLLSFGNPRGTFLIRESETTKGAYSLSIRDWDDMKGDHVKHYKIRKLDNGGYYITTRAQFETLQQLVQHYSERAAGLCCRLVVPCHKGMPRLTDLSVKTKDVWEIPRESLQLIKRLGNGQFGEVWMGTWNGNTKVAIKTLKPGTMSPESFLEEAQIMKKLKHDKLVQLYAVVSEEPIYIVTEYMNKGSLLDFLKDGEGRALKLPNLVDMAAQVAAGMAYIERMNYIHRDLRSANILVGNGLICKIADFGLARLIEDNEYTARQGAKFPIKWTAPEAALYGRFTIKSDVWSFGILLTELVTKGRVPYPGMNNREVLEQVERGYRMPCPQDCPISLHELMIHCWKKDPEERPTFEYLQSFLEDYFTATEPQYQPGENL
Procedure: as §1, §2

K562 cells = assay type: cell-based, Human
Procedure: Flow Cytometry: K562 cells (about 1×10^6 cells/mL) were incubated for 30 minutes with FITC labeled biosensors at various concentrations, 1-50 μM. Cells were centrifuged at about 2500 rpm for about 5 minutes at 4° C. Media was aspirated and cells were washed 3 times with fresh media. A FC500 flow cytometer (Beckman Coulter) was used to analyze 50 μL aliquots of suspended cells.
Flow cytometry was used to verify the uptake of the biosensor SEQ ID NO:47 by K562 cells. We conjugated a FITC fluorophore to the cysteine residue of the biosensor by maleimide reaction.

Bcr-Abl kinase = molecular target: T1, Bcr-Abl kinase (Homo sapiens, UniProt P00519); test: K562 cell kinase assay, intracellular phosphorylation of biosensor; assay type: cell-based; details: K562 cells, 60 minutes incubation, FIG. 6
T1 construct: endogenous in cells; host or cells: K562; the other entry of the earlier key: BCR (P11274, Breakpoint cluster region protein)
T1 sequence (P00519 with tags, fused parts or gaps): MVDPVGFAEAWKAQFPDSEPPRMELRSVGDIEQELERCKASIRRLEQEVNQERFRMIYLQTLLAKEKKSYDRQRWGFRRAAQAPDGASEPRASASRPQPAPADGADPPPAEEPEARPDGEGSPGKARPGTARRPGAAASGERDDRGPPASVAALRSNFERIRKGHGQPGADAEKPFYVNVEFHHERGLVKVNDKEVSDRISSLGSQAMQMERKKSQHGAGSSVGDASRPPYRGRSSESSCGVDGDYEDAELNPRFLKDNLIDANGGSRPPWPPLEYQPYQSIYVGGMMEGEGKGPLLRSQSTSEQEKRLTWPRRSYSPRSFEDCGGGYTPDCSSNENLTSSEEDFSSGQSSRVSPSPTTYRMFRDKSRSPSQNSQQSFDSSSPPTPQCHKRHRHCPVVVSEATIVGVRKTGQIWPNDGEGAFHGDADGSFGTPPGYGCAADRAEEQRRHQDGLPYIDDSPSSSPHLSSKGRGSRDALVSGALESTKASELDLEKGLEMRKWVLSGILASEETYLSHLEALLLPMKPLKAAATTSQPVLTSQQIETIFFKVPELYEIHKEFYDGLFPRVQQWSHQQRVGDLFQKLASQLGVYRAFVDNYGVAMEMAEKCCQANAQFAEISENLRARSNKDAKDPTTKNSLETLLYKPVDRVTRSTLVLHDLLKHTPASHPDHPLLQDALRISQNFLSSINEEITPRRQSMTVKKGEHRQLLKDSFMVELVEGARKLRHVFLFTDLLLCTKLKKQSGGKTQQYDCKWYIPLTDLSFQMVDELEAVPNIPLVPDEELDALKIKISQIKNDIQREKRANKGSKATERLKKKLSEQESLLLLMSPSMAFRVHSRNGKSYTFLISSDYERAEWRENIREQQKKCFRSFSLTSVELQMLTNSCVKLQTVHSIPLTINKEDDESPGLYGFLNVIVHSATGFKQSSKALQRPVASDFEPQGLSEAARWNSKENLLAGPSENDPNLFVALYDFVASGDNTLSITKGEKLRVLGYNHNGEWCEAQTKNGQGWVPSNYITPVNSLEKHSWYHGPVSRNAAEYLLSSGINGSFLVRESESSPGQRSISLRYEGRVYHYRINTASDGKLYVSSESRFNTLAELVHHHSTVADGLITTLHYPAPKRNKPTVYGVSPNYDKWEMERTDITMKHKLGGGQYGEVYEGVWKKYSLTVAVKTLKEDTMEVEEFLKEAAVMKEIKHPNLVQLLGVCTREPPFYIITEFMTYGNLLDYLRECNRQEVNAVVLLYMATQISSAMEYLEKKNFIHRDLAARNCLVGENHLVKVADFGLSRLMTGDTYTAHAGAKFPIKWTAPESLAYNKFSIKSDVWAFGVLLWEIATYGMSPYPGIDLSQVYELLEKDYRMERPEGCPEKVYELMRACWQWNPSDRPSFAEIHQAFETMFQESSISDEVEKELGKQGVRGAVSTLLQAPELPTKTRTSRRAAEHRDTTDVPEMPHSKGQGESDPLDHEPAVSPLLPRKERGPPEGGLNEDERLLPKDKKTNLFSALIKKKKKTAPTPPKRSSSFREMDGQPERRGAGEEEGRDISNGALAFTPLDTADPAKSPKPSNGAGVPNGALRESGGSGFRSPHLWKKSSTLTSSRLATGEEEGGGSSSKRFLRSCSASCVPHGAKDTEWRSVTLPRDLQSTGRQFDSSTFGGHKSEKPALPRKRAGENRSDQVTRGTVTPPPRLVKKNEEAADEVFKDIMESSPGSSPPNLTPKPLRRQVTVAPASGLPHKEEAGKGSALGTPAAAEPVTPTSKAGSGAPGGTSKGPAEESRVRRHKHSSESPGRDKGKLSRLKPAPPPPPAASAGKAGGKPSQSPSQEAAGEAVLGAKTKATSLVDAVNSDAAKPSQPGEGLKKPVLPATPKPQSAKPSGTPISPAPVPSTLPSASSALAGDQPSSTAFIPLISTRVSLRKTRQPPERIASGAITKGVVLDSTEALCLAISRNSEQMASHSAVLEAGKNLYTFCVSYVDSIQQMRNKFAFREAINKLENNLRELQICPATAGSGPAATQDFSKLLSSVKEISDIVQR

[1] = test system: K562 chronic myelogenous leukemia (CML) cells; assay type: in vitro ADME, Human
Procedure: Biosensor Enrichment: K562 cells were incubated in lysis buffer for 20 minutes. Samples were spun down in 2500×g for 5 minutes at 4° C. Lysate was transferred to new Eppendorf tubes and treated with UV light (CL-1000 Ultraviolet Crosslinker (UVP, Upland, Calif., USA)) for 20 minutes to cleave the photo-cleavable linker. Photocleaved lysate samples were incubated with streptavidin coated agarose beads (Pierce) in 96 well polypropylene filter plate (PALL, Ann Arbor, Mich.) for 20 minutes at room temperature. Following incubation, the plate was spun down at 250×g for 30 seconds over a 96 well collection plate. The wells were washed 4 times with 200 uL of PBS and 2 times with MilliQ water, and spun down for 30 seconds at 250×g after each addition. Beads were resuspended in 15 μL of (75%/25%/0.1%:acetonitrile/water/TFA) elution buffer and shaken for 15 minutes at 600 rpm. Biosensor samples were spotted at 0.5 μL on a MALDI plate with 0.5 μL of matrix (10 mg/mL α-cyano-4-cinnamic acid and 10 mg/mL ammonium hydrogen phosphate, dissolved in 75%/25%/0.1% acetonitrile/water/TFA). Mass analysis was performed using an Applied Biosystems Voyager 4800 MALDI-TOF/TOF using linear positive mode.
Human K562 chronic myelogenous leukemia (CML) cells were exposed to either the control biosensor SEQ ID NO: 52 or the biosensor SEQ ID NO: 47 for 5 minutes as shown in FIGS. 8-13. […]

[2] = biosensor incubated with Abl kinase, Michaelis Menten, FIG. 3

Substance	Km (Abl kinase; [2])	Vmax (Abl kinase; [2])	phosphorylation by Abl kinase (Abl kinase)	selectivity toward the Abl family of kinases (Abl kinase)	phosphorylation by Lyn kinase (Lyn kinase)	selectivity for Abl over Lyn or Fyn kinases (Fyn kinase)	uptake by K562 cells (K562 cells)	intracellular phosphorylation of the biosensor (Bcr-Abl kinase)	degradation after exposure to K562 cells [1]
KbiotinkkafpaayiaeG-photo-cleavable linker-GCGAPTYSPPPPPGGrrrqrrkkr (K(Biotin)[dK][dK][dA][dF][dP][dA][dA][dY][dI][dA][dE]G[photo‑cleavable linker]GCGAPTYSPPPPPGG[dR][dR][dR][dQ][dR][dR][dK][dK][dR]; reading uncertain) [SEQ ID NO:47]	7.5 µM	849.5 pmol/mg/min	phosphorylated with reasonable efficiency	relatively selective toward the Abl family of kinases	did not phosphorylate	selective for Abl over Lyn or Fyn kinases	confirmed the uptake	observed	essentially intact
EAIYAAFAKKG-Kbiotin-photo-cleavable linker-GCGAPTYSPPPPPGGRKKRRQRRR (EAIYAAFAKKGK(Biotin)[photo‑cleavable linker]GCGAPTYSPPPPPGGRKKRRQRRR; reading uncertain) [SEQ ID NO: 52, reference compound]									almost completely degraded
KbiotinkkafpaayiaeG-photo-cleavable linker-GCGGrrrqrrkkr (K(Biotin)[dK][dK][dA][dF][dP][dA][dA][dY][dI][dA][dE]G[photo‑cleavable linker]GCGG[dR][dR][dR][dQ][dR][dR][dK][dK][dR]; reading uncertain) [SEQ ID NO: 53]			not appreciably phosphorylated	relatively selective toward the Abl family of kinases					
